Assay results from patent US9938269B2, “Inhibitor compounds of phosphodiesterase type 10A” (ABBVIE INC., priority 2011, dated 2018).
Counter-ions that a name gives are not always drawn.

Key:
PDE10A (human) = molecular target: T1, PDE10A (human) (Homo sapiens, UniProt Q9Y233); assay: Measurement of PDE activity (HTRF cAMP kit), human PDE10A; type: biochemical; settings: PDE enzymatic reaction, substrate 20 nM for PDE10, 60 minutes at 29 C
T1 construct: purchased BPS Bioscience
Procedure, shortened: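 HTRF detection of cAMP left after hydrolysis, expressed as percent of uninhibited control to derive IC50. Reaction: serially diluted inhibitor mixed with recombinant enzyme, started with 20 nM cAMP, 60 min at 29 °C in Tris-HCl pH 7.5 buffer containing MgCl2 and BSA.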

[1] = Determination of the microsomal half-life, human liver microsomes; settings: human, liver microsomes, pH 7.4
[2] = Determination of the microsomal half-life, rat liver microsomes; settings: rat, liver microsomes, pH 7.4
Experimental: The test substances were incubated in a concentration of 0.5 μM as follows:
0.5 μM test substance are preincubated together with liver microsomes from different species (from rat, human or other species) (0.25 mg of microsomal protein/10 in 0.05 M potassium phosphate buffer of pH 7.4 in microtiter plates at 37° C. for 5 min. The reaction is started by adding NADPH (1 mg/mL). After 0, 5, 10, 15, 20 and 30 min., 50 μl aliquots are removed, and the reaction is immediately stopped and cooled with the same volume of acetonitrile. The samples are frozen until analyzed. The remaining concentration of undegraded test substance is determined by MSMS. The half-life (T½) is determined from the gradient of the signal of test substance/unit time plot, it being possible to calculate the half-life of the test substance, assuming first order kinetics, from the decrease in the concentration of the compound with time. The microsomal clearance (mCl) is calculated from mCl=ln 2/T½/(content of microsomal protein in mg/ml)×1000 [ml/min/mg]

T1 sequence (Q9Y233 whole entry): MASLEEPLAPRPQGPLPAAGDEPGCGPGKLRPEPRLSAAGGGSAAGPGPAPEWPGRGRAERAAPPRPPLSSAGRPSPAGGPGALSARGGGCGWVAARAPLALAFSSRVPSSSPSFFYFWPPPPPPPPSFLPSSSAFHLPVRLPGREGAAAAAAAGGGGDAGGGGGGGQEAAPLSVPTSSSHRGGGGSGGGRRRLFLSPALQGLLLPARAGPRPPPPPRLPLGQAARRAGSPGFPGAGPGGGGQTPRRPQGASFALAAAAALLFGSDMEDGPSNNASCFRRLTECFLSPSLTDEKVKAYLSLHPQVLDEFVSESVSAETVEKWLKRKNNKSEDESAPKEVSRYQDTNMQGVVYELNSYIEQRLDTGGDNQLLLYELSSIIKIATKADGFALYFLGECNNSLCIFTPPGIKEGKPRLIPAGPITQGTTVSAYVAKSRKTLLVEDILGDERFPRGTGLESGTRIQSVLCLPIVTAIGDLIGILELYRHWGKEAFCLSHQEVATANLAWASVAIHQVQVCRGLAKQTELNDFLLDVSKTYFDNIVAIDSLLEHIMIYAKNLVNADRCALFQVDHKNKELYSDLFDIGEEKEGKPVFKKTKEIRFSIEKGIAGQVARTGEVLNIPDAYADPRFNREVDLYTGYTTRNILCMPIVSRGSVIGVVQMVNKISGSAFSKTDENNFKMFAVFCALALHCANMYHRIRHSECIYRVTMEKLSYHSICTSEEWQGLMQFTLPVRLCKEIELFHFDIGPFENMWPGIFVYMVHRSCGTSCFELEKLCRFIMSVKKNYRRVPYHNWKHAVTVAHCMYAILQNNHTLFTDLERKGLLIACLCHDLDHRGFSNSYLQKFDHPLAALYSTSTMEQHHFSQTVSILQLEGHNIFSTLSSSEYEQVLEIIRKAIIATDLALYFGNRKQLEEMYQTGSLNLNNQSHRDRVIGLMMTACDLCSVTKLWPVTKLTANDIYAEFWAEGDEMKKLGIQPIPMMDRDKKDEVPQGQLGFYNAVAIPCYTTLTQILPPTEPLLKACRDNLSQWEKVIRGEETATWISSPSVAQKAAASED

Row | IC50 (PDE10A (human)) | microsomal CLint at 0.5 μM [1] | microsomal CLint at 0.5 μM [2] | Structure (SMILES)
1 | < 100 nM | 100 to 220 µL/min/mg | < 100 µL/min/mg | CCc1ccn2cc(CCN3Cc4nccc(N5CCOCC5)c4C3=O)nc2c1 [compound 555, 6-[2-(7-Ethylimidazo[1,2-a]pyridin-2-yl)ethyl]-4-morpholino-7H-pyrrolo[3,4-b]pyridin-5-one]
2 | < 100 nM | < 100 µL/min/mg | < 100 µL/min/mg | O=C1c2c(-c3cn[nH]c3)ccc(F)c2CN1CCc1cn2ccccc2n1 [Example 383, 4-Fluoro-2-(2-imidazo[1,2-a]pyridin-2-yl-ethyl)-7-(1H-pyrazol-4-yl)-2,3-dihydro-isoindol-1-one]
3 | 100 to 200 nM | < 100 µL/min/mg | < 100 µL/min/mg | O=C1c2c(cccc2-c2ccc3nc[nH]c3c2)CN1CCc1cn2ccccc2n1 [Example 244, 7-(3H-Benzoimidazol-5-yl)-2-(2-imidazol[1,2-a]pyridin-2-yl-ethyl)-2,3-dihydro-isoindol-1-one]
4 | 100 to 200 nM | < 100 µL/min/mg | < 100 µL/min/mg | O=C1c2c(N3CCOCC3)ccnc2CN1CCc1nc2ccccc2o1 [compound 417, 6-[2-(1,3-Benzoxazol-2-yl)ethyl]-4-morpholino-7H-pyrrolo[3,4-b]pyridin-5-one]
5 | < 100 nM | < 100 µL/min/mg | < 100 µL/min/mg | O=C1c2c(NC3COC3)ccnc2CN1CCc1nc2ccccc2s1 [Example 376, 6-(2-Benzothiazol-2-yl-ethyl)-4-(oxetan-3-ylamino)-6,7-dihydro-pyrrolo[3,4-b]pyridin-5-one]
6 | < 100 nM | < 100 µL/min/mg | < 100 µL/min/mg | O=C1c2c(N3CCOCC3)ccnc2CN1CCc1cnc2ccccc2n1 [compound 495, 4-Morpholino-6-(2-quinoxalin-2-ylethyl)-7H-pyrrolo[3,4-b]pyridin-5-one trifluoroacetate]
7 | 200 to 500 nM | < 100 µL/min/mg | < 100 µL/min/mg | O=C1c2nccc(-c3ccncc3)c2CN1CCc1cn2ccccc2n1 [compound 452, 6-(2-Imidazo[1,2-a]pyridin-2-yl-ethyl)-4-pyridin-4-yl-5,6-dihydro-pyrrolo[3,4-b]pyridin-7-one]
8 | < 100 nM | < 100 µL/min/mg | > 220 µL/min/mg | Cc1ccc2ccc(CCN3Cc4nccc(-c5ccncc5)c4C3=O)nc2c1 [compound 394, 6-[2-(7-Methyl-2-quinolyl)ethyl]-4-(4-pyridyl)-7H-pyrrolo[3,4-b]pyridin-5-one trifluoroacetate]
9 | 200 to 500 nM | 100 to 220 µL/min/mg | > 220 µL/min/mg | Cc1noc(C)c1-c1ccnc2c1C(=O)N(CCc1ccc3ccccc3n1)C2 [Example 335, 4-(3,5-Dimethyl-isoxazol-4-yl)-6-(2-quinolin-2-yl-ethyl)-6,7-dihydro-pyrrolo[3,4-b]pyridin-5-one]
10 | < 100 nM | < 100 µL/min/mg | 100 to 220 µL/min/mg | CCc1csc(CCN2Cc3nccc(N4CCOCC4)c3C2=O)n1 [compound 516, 6-[2-(4-Ethylthiazol-2-yl)ethyl]-4-morpholino-7H-pyrrolo[3,4-b]pyridin-5-one]
11 | < 100 nM | < 100 µL/min/mg | < 100 µL/min/mg | O=C1c2c(N3CCOCC3)ccnc2CN1CCc1ccc2ncccc2n1 [compound 514, 4-Morpholino-6-[2-(1,5-naphthyridin-2-yl)ethyl]-7H-pyrrolo[3,4-b]pyridin-5-one]
12 | < 100 nM | < 100 µL/min/mg | > 220 µL/min/mg | COc1ccc(N2CCN(C)CC2)c2c1CN(CCc1ccc3ccccc3n1)C2=O [Example 261, 4-Methoxy-7-(4-methyl-piperazin-1-yl)-2-(2-quinolin-2-yl-ethyl)-2,3-dihydro-isoindol-1-one di-trifluoroacetate]
13 | < 100 nM | 100 to 220 µL/min/mg | < 100 µL/min/mg | O=C1c2c(cccc2N2CCOCC2)CN1CCc1ccc2ccccc2n1 [Example 99, 7-Morpholin-4-yl-2-(2-quinolin-2-yl-ethyl)-2,3-dihydro-isoindol-1-one]
14 | 200 to 500 nM | < 100 µL/min/mg | < 100 µL/min/mg | Cc1ccc(CCN2Cc3nccc(N4CCS(=O)(=O)CC4)c3C2=O)nc1 [compound 479, 4-(1,1-Dioxo-1,4-thiazinan-4-yl)-6-[2-(5-methyl-2-pyridyl)ethyl]-7H-pyrrolo[3,4-b]pyridin-5-one trifluoroacetate]
15 | 100 to 200 nM | < 100 µL/min/mg | < 100 µL/min/mg | COc1ccc(-c2cc[nH]n2)c2c1C(=O)N(CCc1cn3ccccc3n1)C2 [compound 454, 2-(2-Imidazo[1,2-a]pyridin-2-yl-ethyl)-7-methoxy-4-(1H-pyrazol-3-yl)-2,3-dihydro-isoindol-1-one]
16 | < 100 nM | 100 to 220 µL/min/mg | < 100 µL/min/mg | Cc1ccc2c(c1)nc(CCN1Cc3cccc(N4CCOCC4)c3C1=O)n2C [Example 306, 2-[2-(1,5-Dimethyl-1H-benzoimidazol-2-yl)-ethyl]-7-morpholin-4-yl-2,3-dihydro-isoindol-1-one trifluoroacetate]
17 | < 100 nM | < 100 µL/min/mg | < 100 µL/min/mg | O=C1c2c(-c3ccncc3)ccnc2CN1CCc1cnc2ccccc2n1 [compound 465, 4-(4-Pyridyl)-6-(2-quinoxalin-2-ylethyl)-7H-pyrrolo[3,4-b]pyridin-5-one]

The next lines start with the compound.

Row | Structure (SMILES) | IC50 (PDE10A (human)) | microsomal CLint at 0.5 μM [1] | microsomal CLint at 0.5 μM [2]
18 | O=C1c2c(cccc2-c2cncnc2)CN1CCc1ccc2ccccc2n1 [Example 58, 7-Pyrimidin-5-yl-2-(2-quinolin-2-yl-ethyl)-2,3-dihydro-isoindol-1-one] | < 100 nM | > 220 µL/min/mg | < 100 µL/min/mg
19 | Cn1c(CCN2Cc3cccc(-c4cncnc4)c3C2=O)nc2ccccc21 [Example 197, 2-[2-(1-Methyl-1H-benzoimidazol-2-yl)-ethyl]-7-pyrimidin-5-yl-2,3-dihydro-isoindol-1-one] | < 100 nM | 100 to 220 µL/min/mg | < 100 µL/min/mg
20 | Cn1nccc1-c1cccc2c1C(=O)N(CCc1nc3ccccc3[nH]1)C2 [Example 313, 2-[2-(1H-Benzoimidazol-2-yl)-ethyl]-7-(2-methyl-2H-pyrazol-3-yl)-2,3-dihydro-isoindol-1-one trifluoroacetate] | 200 to 500 nM | < 100 µL/min/mg | < 100 µL/min/mg
21 | O=C1c2c(cccc2-c2ccncc2)CN1CCc1nc2ccccn2n1 [Example 230, 7-Pyridin-4-yl-2-(2-[1,2,4]triazolo[1,5-a]pyridin-2-yl-ethyl)-2,3-dihydro-isoindol-1-one] | 200 to 500 nM | < 100 µL/min/mg | < 100 µL/min/mg
22 | CNCc1ccc(-c2cccc3c2C(=O)N(CCc2ccc4ccccc4n2)C3)cc1 [Example 194, 7-(4-Methylaminomethyl-phenyl)-2-(2-quinolin-2-yl-ethyl)-2,3-dihydro-isoindol-1-one] | 200 to 500 nM | 100 to 220 µL/min/mg | 100 to 220 µL/min/mg
23 | Nc1ncc2cc(-c3cccc4c3C(=O)N(CCc3ccc5ccccc5n3)C4)ccc2n1 [Example 12, 7-(2-Amino-quinazolin-6-yl)-2-(2-quinolin-2-yl-ethyl)-2,3-dihydro-isoindol-1-one] | < 100 nM | 100 to 220 µL/min/mg | 100 to 220 µL/min/mg
24 | O=C1c2c(-c3ccc(F)cc3)ccnc2CN1CCc1nc2ccccc2s1 [compound 542, 6-[2-(1,3-Benzothiazol-2-yl)ethyl]-4-(4-fluorophenyl)-7H-pyrrolo[3,4-b]pyridin-5-one trifluoroacetate] | 100 to 200 nM | < 100 µL/min/mg | 100 to 220 µL/min/mg
25 | O=C1c2c(cccc2N2C[C@@H]3CCCNC[C@H]3C2)CN1CCc1ccc2ccccc2n1 [Example 317, 7-(3aS,8aR)-Octahydro-pyrrolo[3,4-c]azepin-2-yl-2-(2-quinolin-2-yl-ethyl)-2,3-dihydro-isoindol-1-one trifluoroacetate] | 200 to 500 nM | 100 to 220 µL/min/mg | < 100 µL/min/mg
26 | O=C1c2c(-c3ccncc3)cccc2C(F)(F)N1CCc1ccc2ccccc2n1 [Example 4, 3,3-Difluoro-7-pyridin-4-yl-2-(2-quinolin-2-yl-ethyl)-2,3-dihydro-isoindol-1-one] | < 100 nM | 100 to 220 µL/min/mg | > 220 µL/min/mg
27 | Cc1ncc(-c2ccnc3c2C(=O)N(CCc2nc4ccccc4s2)C3)cn1 [compound 445, 6-[2-(1,3-Benzothiazol-2-yl)ethyl]-4-(2-methylpyrimidin-5-yl)-7H-pyrrolo[3,4-b]pyridin-5-one] | 100 to 200 nM | < 100 µL/min/mg | < 100 µL/min/mg
28 | Cn1c(CCN2Cc3cccc(-c4ccncc4)c3C2=O)nc2c(F)cccc21 [Example 300, 2-[2-(4-Fluoro-1-methyl-1H-benzoimidazol-2-yl)-ethyl]-7-pyridin-4-yl-2,3-dihydro-isoindol-1-one trifluoroacetate] | < 100 nM | > 220 µL/min/mg | 100 to 220 µL/min/mg
29 | O=C1c2c(-c3ccncc3)ccnc2CN1CCc1ccc2ccccc2n1 [Example 3, 4-Pyridin-4-yl-6-(2-quinolin-2-yl-ethyl)-6,7-dihydro-pyrrolo[3,4-b]pyridin-5-one] | < 100 nM | < 100 µL/min/mg | 100 to 220 µL/min/mg
30 | Cc1cccnc1CCN1Cc2nccc(-c3ccncc3)c2C1=O [compound 409, 6-[2-(3-Methyl-2-pyridyl)ethyl]-4-(4-pyridyl)-7H-pyrrolo[3,4-b]pyridin-5-one] | 200 to 500 nM | < 100 µL/min/mg | < 100 µL/min/mg
